Laboratory results taken from patent publication US8513230B2, “Nuclear transport modulators and uses thereof” (Karyopharm Therapeutics, Inc., priority 2010, dated 2013).

Legend:
[1] = target: T1, Crm1 (Homo sapiens, UniProt O14980); assay: Rev-GFP nuclear export inhibition assay (U2OS-RevGFP cells); type: cell-based; settings: ~1 hr incubation with compound, read-out: Rev Export (%)/[IC50] OR Cytotoxicity[EC50]
T1 construct: endogenous in cells; host or cells: U2OS-RevGFP cells
Procedure: The evaluation of the affinity of compounds for the Crm1 protein was determined in the RevGFP assay.
Experimental protocol: Rev is a protein from human immunodeficiency virus type 1 (HIV-1) and contains a nuclear export signal (NES) in its C-terminal domain and a nuclear localization signal (NLS) in its N-terminal domain. Nuclear export of Rev protein is dependent on the classical NES/Crm1 pathway (Neville et al, 1997). Nuclear accumulation of Rev can be observed in cells treated with specific inhibitors of Crm1, such as LMB (Kau et al, 2003). In this assay, U2OS-RevGFP cells are seeded onto clear-bottom, black, 384-well plates the day before the experiment. Compounds are serially diluted 1:2 starting from 40 μM in a separate 384-well plate in DMEM, and then transferred onto cells. Cells are incubated with compound for ˜1 hr before fixation with 3.7% formaldehyde and nuclei staining with Hoechst 33258. The amount of GFP in cell nuclei will be measured and compound IC50s determined (Kau et al, 2003).

[2] = tested on: Human myeloma cell lines (H929); assay: Combination study with doxorubicin, apoptosis by anti-caspase-3 assay; type: cell-based; settings: H929 cells, compound 16 hrs then doxorubicin 2 umol/L for 4 h
Procedure: Combinations studies with doxorubicin. Human myeloma cell lines (H929) grown at 2×10^6 cells/mL (high density) were incubated with and without Example 1 for 16 h followed by doxorubicin (2 umol/L; Sigma) for 4 h and assayed for apoptosis by anti-caspase-3 assay (BD Pharmingen).

[3] = tested on: MM.1S, MM.1R, Jurkat and HS-Sultan cells; assay: Isobologram analysis of the interaction with Bortezomib; type: cell-based
Procedure: The MTT cell proliferation assay was used to study the cytotoxic properties of the compounds. The assay was performed according to the method described by Roche Molecular Biochemicals with minor modifications. The assay is based on the cleavage of the tetrazolium salt, MTT, in the presence of an electron-coupling reagent. The water-insoluble formazan salt produced must be solubilized in an additional step. Cells, grown in a 96-well tissue culture plate, are incubated with the MTT solution for approximately 4 hours. After this incubation period, a water-insoluble formazan dye is formed. After solubilization, the formazan dye is quantitated using a scanning multi-well spectrophotometer (ELISA reader). […] The cells were seeded at 1.5×10^4 cells in each well of 96-well plate in 200 μL of fresh culture medium and were allowed to attach for overnight. The stock solutions of the compounds were diluted in cell culture medium to obtain eight concentrations of each drug, ranging from 1 nM to 20 μM. After 72 h of treatment the medium was aspirated and the cells were washed once with sterile 1×PBS. […]
Tumor cells were assayed for viability in the absence or presence of drug/control treatments, and drug combination dose response studies were analyzed graphically by correlating the fraction of surviving cells with drug concentrations for each drug.r

[4] = tested on: panel of ~570 solid and hematologic cancer cell lines; assay: Cytotoxicity assay (CellTiter 96 AQueous One Solution, MTS) in cancer cell line panel; type: cell-based; settings: 72 hours exposure, IC50 determined by MTS assay
Procedure: Cytotoxicity Assay (CellTiter 96® AQueous One Solution Cell Proliferation Assay) Cells were seeded into 96-well plates and compounds at the indicated concentrations were added to the cells after overnight incubation. Seventy two hrs later the proliferation assay was done in the following way: Twenty microliters of CellTiter 96® AQueous One Solution Reagent was added into each well. After 1 hour at 37° C. in a humidified, 5% CO2 atmosphere, the absorbance at 490 nm was recorded using an ELISA plate reader. Test compound was assayed in numerous cancer cell lines using the above assay protocol. Results are depicted in FIG. 3.

[5] = tested on: normal cells; assay: Cytotoxicity assay (MTS), normal cells; type: cell-based; settings: 72 hours exposure
[6] = tested on: MM1.S xenografts; assay: MM1.S xenograft growth; type: in vivo
Procedure: FIG. 4 presents activity data for Example 1 (KPT-0127) administered at 150 mg/kg QD×5. […] (A) MM1.S cells were grown as xenografts to 130 mm^3 (small) or (B) 1350 mm^3 (large) sizes and were treated with KPT-0127 SC or dexamethasone IP daily×5 and growth was assessed. Treatment of large xenografts is ongoing (data shown after 5 doses of KPT-0127).

[7] = tested on: HCT-116 xenografts; assay: HCT-116 xenograft growth and tolerability; type: in vivo
Procedure: FIG. 5 presents activity data for Example 1 (KPT-127) administered at 150 mg/kg QD×7. […] HCT-116 xenografts were grown to ˜150 mm^3 and low dose KPT-0127 administered. On day 9, when the tumors were ˜350 mm^3, KPT-127 dose was escalated to 150 mg/kg sc daily. Irinotecan was used as a control.

T1 sequence (O14980 whole entry): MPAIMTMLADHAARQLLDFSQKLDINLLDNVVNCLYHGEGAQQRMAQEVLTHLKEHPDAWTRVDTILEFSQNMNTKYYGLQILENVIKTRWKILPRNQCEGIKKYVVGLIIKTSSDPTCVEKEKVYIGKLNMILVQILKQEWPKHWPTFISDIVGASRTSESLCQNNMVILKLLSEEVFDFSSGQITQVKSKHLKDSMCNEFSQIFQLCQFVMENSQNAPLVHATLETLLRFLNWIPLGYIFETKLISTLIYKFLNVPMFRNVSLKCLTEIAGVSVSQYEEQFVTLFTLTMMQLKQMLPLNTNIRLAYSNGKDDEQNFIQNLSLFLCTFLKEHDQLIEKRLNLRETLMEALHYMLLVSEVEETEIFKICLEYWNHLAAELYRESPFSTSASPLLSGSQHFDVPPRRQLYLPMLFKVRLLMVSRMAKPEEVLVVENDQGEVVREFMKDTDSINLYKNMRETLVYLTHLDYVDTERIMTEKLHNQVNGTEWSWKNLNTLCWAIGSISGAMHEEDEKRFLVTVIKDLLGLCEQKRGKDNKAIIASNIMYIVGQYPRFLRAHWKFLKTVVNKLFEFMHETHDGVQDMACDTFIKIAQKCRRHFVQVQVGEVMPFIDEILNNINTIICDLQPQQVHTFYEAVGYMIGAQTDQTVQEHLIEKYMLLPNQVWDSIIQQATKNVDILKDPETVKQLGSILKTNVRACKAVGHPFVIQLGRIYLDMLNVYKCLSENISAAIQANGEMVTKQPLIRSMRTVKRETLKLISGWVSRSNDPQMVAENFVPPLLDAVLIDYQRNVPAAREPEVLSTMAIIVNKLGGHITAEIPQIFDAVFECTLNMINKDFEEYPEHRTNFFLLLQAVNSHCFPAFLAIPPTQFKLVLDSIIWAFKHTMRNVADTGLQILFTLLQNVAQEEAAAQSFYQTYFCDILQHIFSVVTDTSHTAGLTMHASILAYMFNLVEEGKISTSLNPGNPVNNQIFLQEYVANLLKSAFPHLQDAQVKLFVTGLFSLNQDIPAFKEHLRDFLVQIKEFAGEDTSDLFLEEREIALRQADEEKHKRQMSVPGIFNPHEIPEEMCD

## CC(C)N(C)C(=O)/C=C\c1n[nH]c(-c2cccc(Cl)c2)n1 [Example 95, 3-[5-(3-Chloro-phenyl)-1H-[1,2,4]triazol-3-yl]-N-isopropyl-N-methyl-acrylamide]
[1]
  IC50: > 10 µM

## CCOC(=O)/C=C\n1cnc(-c2cc(F)cc(Cl)c2)n1 [Example 82, 3-[3-(3-Chloro-5-fluoro-phenyl)-[1,2,4]triazol-1-yl]-acrylic acid ethyl ester]
[1]
  IC50: 1 to 10 µM

## CC(C)OC(=O)/C=C\n1cnc(-c2cc(C(F)(F)F)cc(S(C)(=O)=O)c2)n1 [Example 67, (Z)-isopropyl 3-(3-(3-(methylsulfonyl)-5-(trifluoromethyl)phenyl)-1H-1,2,4-triazol-1-yl)acrylate]
[1]
  IC50: < 1 µM

## CC(C)OC(=O)/C=C\n1cnc(-c2cccc(Cl)c2)n1 [Example 1, (Z)-3-[3-(3-Chloro-phenyl)-[1,2,4]-triazol-1-yl]-acrylic acid isopropyl ester]
[2]
  sensitization to Topo II inhibitor Doxorubicin (apoptosis): sensitizes non-Cyclin resistant Myeloma H929 cells to Topo II inhibitor Doxorubicin
[3]
  interaction with Bortezomib (isobologram analysis): synergistic interactions with Bortezomib
[4]
  cytotoxicity in hematologic and solid tumor cell lines: potent and selective cytotoxicity
[5]
  effect on normal cells: minimal effect on normal cells
[6]; 150 mg/kg QD×5 SC, xenografts grown to 130 mm^3
  growth of small MM1.S xenografts: inhibits growth
[6]; 150 mg/kg SC, xenografts 1300 mm^3, data after 5 doses, treatment ongoing
  growth of large MM1.S xenografts: inhibits growth
[7]; 150 mg/kg QD×7, low dose from ~150 mm^3, escalated on day 9 (~350 mm^3) to 150 mg/kg sc daily
  growth of moderate HCT-116 xenografts: inhibits moderate HCT-116 xenografts
[7]; 150 mg/kg sc daily
  tolerability: well tolerated
[7]; HCT-116 xenograft study
  clinical chemistries and CBCs: not significantly affected
